Literature values as cited in patent US9511035B2, “Java ginger extract and manufacturing method” (Hosoda SHC Inc., priority 2013, dated 2016).

Experiments:
chemokine expression = settings: disclosed in JP 2003-306438 A
tyrosinase = settings: disclosed in JP 2003-313116 A
[1] = test system: rat adrenal medullary pheochromocytoma (PC12 cell); settings: stated in words; for NGF-like action: no data in this patent, earlier finding of the inventors (JP 2010-90053 A)
[2] = target: platelet-activating factor (Homo sapiens, UniProt P25105); settings: disclosed in JP 2003-313116 A
Chain of platelet-activating factor (P25105 whole entry): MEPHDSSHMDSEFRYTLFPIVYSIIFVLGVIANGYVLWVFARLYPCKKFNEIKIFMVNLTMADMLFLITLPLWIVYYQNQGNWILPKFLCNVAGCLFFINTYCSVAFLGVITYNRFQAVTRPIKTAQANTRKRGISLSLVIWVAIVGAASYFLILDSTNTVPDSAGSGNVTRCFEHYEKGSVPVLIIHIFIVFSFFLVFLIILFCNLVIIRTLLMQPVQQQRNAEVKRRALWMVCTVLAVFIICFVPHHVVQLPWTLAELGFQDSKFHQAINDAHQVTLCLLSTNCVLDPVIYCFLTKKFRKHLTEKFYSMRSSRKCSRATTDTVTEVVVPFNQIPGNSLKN

tyrosinase activity-inhibiting action (tyrosinase) | platelet-activating factor antagonism [2] | Compound | chemokine expression-inhibiting action (chemokine expression) | process extension activity ([1]; PC12 cell) | differentiation of PC12 cell ([1]; as is the case with the NGF) | NGF-like action (neuronal process extension action) relative to NGF ([1]; comparison with NGF) | NGF-like action [1]
tyrosinase activity-inhibiting action | platelet-activating factor antagonism | COc1ccc(/C=C/C2CCC=CC2c2ccc(OC)c(OC)c2)cc1OC (centres unmarked) [phenyl butenoid dimer] | chemokine expression-inhibiting action | shows a process extension activity | induces differentiation | more effective than NGF | showed an NGF-like action
 |  | C=C/C=C/c1ccc(OC)c(OC)c1 [monomer, phenyl butenoid monomer, reference compound] |  |  |  |  | no NGF-like action
